Laboratory results reported in patent US20240336559A1, “ANTI-FUNGALS COMPOUNDS TARGETING THE SYNTHESIS OF FUNGAL SPHINGOLIPIDS” (The Research Foundation for the State University of New York, priority 2021, published 2024).
In brackets after ≈: the same amount, converted by molar mass. Like-named read-outs stand apart in the source and are kept apart here.

What was measured:
[1] = test system: synthesis of sphingolipid GlcCer in C. neoformans; settings: in words, 'It was known'; cited from earlier work
[2] = test system: C. neoformans; assay: Antifungal activity assay (MIC80), C. neoformans; format: cell-based; settings: Cryptococcus neoformans
Method: (§1) MICs were determined following the methods of the Clinical and Laboratory Standards Institutes (CLSI) with modifications. Yeast nitrogen base (YNB) medium without amino acid (pH 7.0, 2% glucose) buffered with (4-(2-hydroxyethyl)-1-piperazineethanesulfonic acid) (HEPES) was used for MIC studies in C. neoformans. YNB medium without ammonium sulfate, without amino acid and 1% asparagine (pH 7.0, 2% glucose) was used for MIC studies in Candida strains. RPMI medium (pH 7.0, 2% glucose) was used for MIC studies in A. fumigatus. […] The compounds were serially diluted from 32 to 0.03 μg/mL, in a 96-well plate. The inoculum was prepared as described in the CLSI protocol M27A3 guidelines. The plates were incubated at 37° C. with 5% CO2 for 24 to 72 h and the optical density was measure at 450 nm. The MICs were determined as the lowest concentration of the compound that inhibited 80% of growth compared to the control.
MICs was determined following the methods of the Clinical and Laboratory Standards Institutes (CLSI) with modifications. Yeast Nitrogen Base (YNB) medium (pH 7.0, 0.2% glucose) buffered with HEPES was used for MIC studies. […] The compound was serially diluted from 16 to 0.03 μg/ml, in a 96-well plate. The inoculum was prepared as described in the CLSI protocol M27A3 guidelines. The plates were incubated at 37° C. with 5% CO2 for 24 to 72 h and the optical density was measure at 450 nm. The MICs was determined as the lowest concentration of the compound that inhibited 80% of growth compared to the control.

[3] = test system: A. fumigatus; assay: Antifungal activity assay (MIC80), A. fumigatus; format: cell-based; settings: Aspergillus fumigatus; lowest concentration inhibiting 80% of growth; RPMI pH 7.0, 37° C., 5% CO2, 24 to 72 h
Method: as §1

[4] = test system: C. albicans; assay: Antifungal activity assay (MIC80), C. albicans; format: cell-based; settings: Candida albicans; lowest concentration inhibiting 80% of growth; YNB pH 7.0, 37° C., 5% CO2, 24 to 72 h
Method: as §1

[5] = test system: C. neoformans, C. albicans, A. fumigatus; assay: Broad spectrum in vitro antifungal activity; format: cell-based; settings: in words
Method: as §1

[6] = lowest concentration inhibiting 80% of growth, YNB pH 7.0 HEPES, 37° C., 5% CO2, 24 to 72 h, read-out: MIC80 C. neoformans

SMILES | MIC80 [2, 6] [µg/mL] | MIC80 [3] [µg/mL] | MIC80 [4] [µg/mL] | melting point [°C] | other results
Cc1ccccc1C(=O)N/N=C/c1ccc(O)c(Br)c1 [BHBM] | – | – | – | – | antifungal activities by inhibiting the synthesis of sphingolipid GlcCer [1]: potent antifungal activities
C#Cc1ccc(O)c(/C=N/NC(=O)c2ccc(Br)cc2Br)c1 [SB-AF-08-23, 2,4-Dibromo-N′-(5-ethynyl-2-hydroxybenzylidene)benzohydrazide] | 0.03 (≈ 0.0711 µM) | 2 (≈ 4.74 µM) | ≤ 0.01 | – | –
C#Cc1ccc(/C=N/NC(=O)c2ccc(Br)cc2Br)c(O)c1 [SB-AF-08-27, 2,4-Dibromo-N′-(4-ethynyl-2-hydroxybenzylidene)benzohydrazide] | 0.03 (≈ 0.0711 µM) | 0.5 (≈ 1.18 µM) | 0.12 (≈ 0.284 µM) | – | in vitro broad-spectrum antifungal activity [5]: excellent in vitro broad-spectrum activity
C#Cc1cccc(O)c1/C=N/NC(=O)c1ccc(Br)cc1Br [SB-AF-08-29, 2,4-Dibromo-N′-(2-ethynyl-6-hydroxybenzylidene)benzohydrazide] | 0.031 (≈ 0.0734 µM) | > 32 | 0.5 (≈ 1.18 µM) | – | –
C#Cc1ccc(O)c(/C=N/NC(=O)c2ccc(Br)cc2)c1 [SB-AF-10-23, 4-Bromo-N′-(5-ethynyl-2-hydroxybenzylidene) benzohydrazide] | 0.007 (≈ 0.0204 µM) | 2 (≈ 5.83 µM) | 0.06 (≈ 0.175 µM) | – | –
C#Cc1ccc(/C=N/NC(=O)c2ccc(Br)cc2)c(O)c1 [SB-AF-10-27, 4-Bromo-N′-(4-ethynyl-2-hydroxybenzylidene)benzohydrazide] | 0.03 (≈ 0.0874 µM) | > 16 | 4 (≈ 11.7 µM) | – | –
C#Cc1cccc(/C=N/NC(=O)c2ccc(Br)cc2)c1O [SB-AF-10-28, 4-Bromo-N′-(3-ethynyl-2-hydroxybenzylidene)benzohydrazide] | 0.007 (≈ 0.0204 µM) | 4 (≈ 11.7 µM) | 2 (≈ 5.83 µM) | – | –
C#Cc1cccc(O)c1/C=N/NC(=O)c1ccc(Br)cc1 [SB-AF-10-29, 4-Bromo-N-(2-ethynyl-6-hydroxybenzylidene)benzohydrazide] | – | > 32 | 8 (≈ 23.3 µM) | – | MIC80 ([2]; pH 7, read-out: MIC80 C. neoformans): 0.125 µg/mL (≈ 0.364 µM)
C#Cc1ccc(O)c(/C=N/NC(=O)c2cc(Br)cc(Br)c2O)c1 [SB-AF-12-23, 2-Hydroxy-3,5-dibromo-N-(5-ethynyl-2-hydroxybenzylidene)benzohydrazide] | 0.03 (≈ 0.0685 µM) | 4 (≈ 9.13 µM) | 0.12 (≈ 0.274 µM) | – | –
C#Cc1ccc(/C=N/NC(=O)c2cc(Br)cc(Br)c2O)c(O)c1 [SB-AF-12-27, 3,5-Dibromo-N′-(4-ethynyl-2-hydroxybenzylidene)-2-hydroxybenzohydrazide] | 0.03 (≈ 0.0685 µM) | > 16 | 2 (≈ 4.57 µM) | – | –
C#Cc1ccc(O)c(/C=N/NC(=O)c2ccc(Br)c(Br)c2)c1 [SB-AF-13-23, 3,4-Dibromo-N′-(5-ethynyl-2-hydroxybenzylidene)benzohydrazide] | 0.06 (≈ 0.142 µM) | 2 (≈ 4.74 µM) | 0.5 (≈ 1.18 µM) | – | –
C#Cc1ccc(/C=N/NC(=O)c2ccc(Br)c(Br)c2)c(O)c1 [SB-AF-13-27, 3,4-Dibromo-N′-(4-ethynyl-2-hydroxybenzylidene)benzohydrazide] | 0.007 (≈ 0.0166 µM) | > 16 | 8 (≈ 19 µM) | – | –
C#Cc1cccc(/C=N/NC(=O)c2ccc(Br)c(Br)c2)c1O [SB-AF-13-28, 3,4-Dibromo-N′-(3-ethynyl-2-hydroxybenzylidene)benzohydrazide] | 0.015 (≈ 0.0355 µM) | 1 (≈ 2.37 µM) | 4 (≈ 9.48 µM) | – | –
C#Cc1cccc(O)c1/C=N/NC(=O)c1ccc(Br)c(Br)c1 [SB-AF-13-29, 3,4-Dibromo-N′-(2-ethynyl-6-hydroxybenzylidene)benzohydrazide] | 0.06 (≈ 0.142 µM) | 8 (≈ 19 µM) | 16 (≈ 37.9 µM) | – | –
C#Cc1ccc(O)c(/C=N/NC(=O)c2ccc(OC(F)(F)F)cc2F)c1 [SB-AF-25-23, 2-Fluoro-4-(trifluoromethoxy)-N-(5-ethynyl-2-hydroxybenzylidene)benzohydrazide] | 4 (≈ 10.9 µM) | – | – | – | –
C#Cc1ccc(C(=O)N/N=C/c2ccc(C#C)cc2O)cc1 [SB-AF-36-27, 4-Ethynyl-N′-(4-ethynyl-2-hydroxybenzylidene)benzohydrazide] | 0.007 (≈ 0.0243 µM) | > 16 | 16 (≈ 55.5 µM) | – | –

SMILES | MIC80 [2, 6] [µg/mL] | MIC80 [3] [µg/mL] | MIC80 [4] [µg/mL] | melting point [°C] | other results
COCc1ccc(C(=O)N/N=C/c2ccc(Br)cc2O)cc1 [SB-AF-39-13, 4-Methoxymethyl-N′-(4-bromo-2-hydroxybenzylidene)benzohydrazide] | – | – | – | 198 to 199 | –
COCc1ccc(C(=O)N/N=C/c2cc(Br)ccc2O)cc1 [SB-AF-39-15, 4-Methoxymethyl-N′-(5-bromo-2-hydroxybenzylidene)benzohydrazide] | – | – | – | 188 to 189 | –
COCc1ccc(C(=O)N/N=C/c2cccc(Br)c2O)cc1 [SB-AF-39-22, 4-Methoxymethyl-N′-(3-bromo-2-hydroxybenzylidene)benzohydrazide] | – | – | – | 187 to 188 | –
C#Cc1ccc(O)c(/C=N/NC(=O)c2ccc(COC)cc2)c1 [SB-AF-39-23, 4-Methoxymethyl-N′-(5-ethynyl-2-hydroxybenzylidene)benzohydrazide] | 0.25 (≈ 0.811 µM) | – | – | – | –
CCOCc1ccc(C(=O)N/N=C/c2cc(Br)cc(Br)c2O)cc1 [SB-AF-40-17, 4-Ethoxymethyl-N′-(3,5-dibromo-2-hydroxybenzylidene)benzohydrazide] | – | – | – | 205 to 207 | –
CCOCc1ccc(C(=O)N/N=C/c2cccc(Br)c2O)cc1 [SB-AF-40-22, 4-Ethoxymethyl-N′-(3-bromo-2-hydroxybenzylidene)benzohydrazide] | – | – | – | 176 to 177 | –
C#Cc1ccc(/C=N/NC(=O)c2ccc(COCC)cc2)c(O)c1 [SB-AF-40-27, 4-(Ethoxymethyl)-N′-(4-ethynyl-2-hydroxybenzylidene)benzohydrazide] | 0.031 (≈ 0.0962 µM) | – | 8 (≈ 24.8 µM) | – | –
CC(C)OCc1ccc(C(=O)N/N=C/c2ccc(Br)cc2O)cc1 [SB-AF-41-13, 4-Isopropoxymethyl-N′-(4-bromo-2-hydroxybenzylidene)benzohydrazide] | – | – | – | 193 to 195 | –
CC(C)OCc1ccc(C(=O)N/N=C/c2cc(Br)ccc2O)cc1 [SB-AF-41-15, 4-Isopropoxymethyl-N′-(5-bromo-2-hydroxybenzylidene)benzohydrazide] | – | – | – | 179 to 181 | –
CC(C)OCc1ccc(C(=O)N/N=C/c2cc(Br)cc(Br)c2O)cc1 [SB-AF-41-17, 4-Isopropoxymethyl-N′-(3,5-dibromo-2-hydroxybenzylidene)benzohydrazide] | – | – | – | 186 to 187 | –
C#Cc1ccc(/C=N/NC(=O)c2ccc(COC(C)C)cc2)c(O)c1 [SB-AF-41-27, N′-(4-Ethynyl-2-hydroxybenzylidene)-4-(isopropoxymethyl)benzohydrazide] | ≤ 0.015 | – | > 16 | – | –
C#Cc1ccc(O)c(/C=N/NC(=O)c2ccc(C3(C(F)(F)F)N=N3)cc2)c1 [SB-AF-43-23, 4-(3-(Trifluoromethyl)-3H-diazirin-3-yl)-N′-(5-ethynyl-2-hydroxybenzylidene) benzohydrazide] | 0.007 (≈ 0.0188 µM) | 1 (≈ 2.69 µM) | 1 (≈ 2.69 µM) | – | –
CCCOCc1ccc(C(=O)N/N=C/c2cc(Br)ccc2O)cc1 [SB-AF-44-15, 4-Propoxymethyl-N′-(5-bromo-2-hydroxybenzylidene)benzohydrazide] | – | – | – | 175 to 176 | –
CCCOCc1ccc(C(=O)N/N=C/c2cc(Br)cc(Br)c2O)cc1 [SB-AF-44-17, 4-Propoxymethyl-N′-(3,5-dibromo-2-hydroxybenzylidene)benzohydrazide] | – | – | – | 190 to 192 | –
C#Cc1ccc(/C=N/NC(=O)c2ccc(COCCC)cc2)c(O)c1 [SB-AF-44-27, N′-(4-Ethynyl-2-hydroxybenzylidene)-4-(propoxymethyl)benzohydrazide] | 0.25 (≈ 0.743 µM) | – | > 16 | – | –
C#Cc1ccc(/C=N/NC(=O)c2ccc(Br)c(O)c2)c(O)c1 [SB-AF-46-27, 4-Bromo-N′-(4-ethynyl-2-hydroxybenzylidene)-3-hydroxybenzohydrazide] | 1 (≈ 2.78 µM) | > 32 | > 16 | – | –
